What all share (assay): DSF 100 kinase selectivity screen;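 note: compound tested at 20 µM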
Holding throughout (assay type): binding

Test [1] deals with T1, ~100 representative kinases (Homo sapiens, UniProt Q00536).
T1 construct: Recombinant protein kinase domains with a concentration of 2 μM
The note with it: protein PCTK1; average of three replicates. An outline of the steps: (§1)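 Each kinase domain, at 2 μM, is mixed with 20 μM test compound and SYPRO Orange in Hepes (20 mM, pH 7.5) with 500 mM NaCl. Temperature is then raised at 3°C/min and fluorescence-monitored unfolding yields the melting temperature change, ΔTm in degrees Celsius.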

For test [2], the target named is T2, ~100 representative kinases (Homo sapiens, UniProt Q9H4A3).
T2 construct: Recombinant protein kinase domains with a concentration of 2 μM
The note with it: Protein WNK1; DSF; average of three replicates. The method in brief: as §1

In test [3] the target is T3, ~100 representative kinases (Homo sapiens, UniProt P22830).
T3 construct: Recombinant protein kinase domains with a concentration of 2 μM
T3 sequence (P22830 55-423): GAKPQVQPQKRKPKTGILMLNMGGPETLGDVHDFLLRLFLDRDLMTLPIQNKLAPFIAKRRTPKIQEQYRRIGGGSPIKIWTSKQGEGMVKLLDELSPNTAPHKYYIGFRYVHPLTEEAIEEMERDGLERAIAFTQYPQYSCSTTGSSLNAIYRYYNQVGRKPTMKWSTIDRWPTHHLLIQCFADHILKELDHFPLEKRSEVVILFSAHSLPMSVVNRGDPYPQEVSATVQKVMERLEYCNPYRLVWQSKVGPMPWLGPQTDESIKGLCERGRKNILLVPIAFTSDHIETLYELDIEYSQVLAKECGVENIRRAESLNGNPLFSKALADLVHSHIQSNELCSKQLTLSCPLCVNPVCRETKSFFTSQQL
As to conditions: protein FECH; average of three replicates. The method in brief: as §1

The target in test [4] is T4, ~100 representative kinases (Homo sapiens, UniProt P16083).
T4 construct: Recombinant protein kinase domains with a concentration of 2 μM
T4 sequence (P16083 1-231): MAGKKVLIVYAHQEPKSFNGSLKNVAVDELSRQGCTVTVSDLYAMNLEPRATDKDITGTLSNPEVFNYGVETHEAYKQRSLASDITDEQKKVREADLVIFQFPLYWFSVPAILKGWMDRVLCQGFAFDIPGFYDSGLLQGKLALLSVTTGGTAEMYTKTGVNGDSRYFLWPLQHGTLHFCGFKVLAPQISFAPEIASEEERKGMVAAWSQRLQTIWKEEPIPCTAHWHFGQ
The note with it: protein NQO2; average of three replicates. An outline of the steps: as §1

Test [5] has as its target T5, ~100 representative kinases (Homo sapiens, UniProt Q13557).
T5 construct: Recombinant protein kinase domains with a concentration of 2 μM
The note with it: Protein CAMK2D; average of three replicates. An outline of the steps:
as §1

Test [6] deals with T6, ~100 representative kinases (Homo sapiens, UniProt P45983).
T6 construct: Recombinant protein kinase domains with a concentration of 2 μM
T6 sequence (P45983 whole entry, the tested form may be a part): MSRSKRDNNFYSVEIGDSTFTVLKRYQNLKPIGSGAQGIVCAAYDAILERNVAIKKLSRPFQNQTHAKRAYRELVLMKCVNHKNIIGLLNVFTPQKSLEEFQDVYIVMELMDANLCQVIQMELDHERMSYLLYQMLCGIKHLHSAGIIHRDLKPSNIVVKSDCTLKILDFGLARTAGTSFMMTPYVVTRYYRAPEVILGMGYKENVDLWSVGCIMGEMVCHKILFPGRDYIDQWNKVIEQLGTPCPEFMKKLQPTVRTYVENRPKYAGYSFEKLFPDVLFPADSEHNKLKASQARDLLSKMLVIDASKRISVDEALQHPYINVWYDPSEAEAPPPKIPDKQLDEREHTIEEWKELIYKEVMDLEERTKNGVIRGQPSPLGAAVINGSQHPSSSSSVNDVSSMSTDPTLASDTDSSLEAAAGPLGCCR
The note with it: protein MAPK8; average of three replicates. The method in brief: as §1

Test [7] concerns the target T7, ~100 representative kinases (Homo sapiens, UniProt Q14680).
T7 construct: Recombinant protein kinase domains with a concentration of 2 μM
The note with it: protein MELK; average of three replicates. The method in brief: as §1

For test [8], the target named is T8, ~100 representative kinases (Homo sapiens, UniProt Q96L34).
T8 construct: Recombinant protein kinase domains with a concentration of 2 μM
T8 sequence (Q96L34 1-752): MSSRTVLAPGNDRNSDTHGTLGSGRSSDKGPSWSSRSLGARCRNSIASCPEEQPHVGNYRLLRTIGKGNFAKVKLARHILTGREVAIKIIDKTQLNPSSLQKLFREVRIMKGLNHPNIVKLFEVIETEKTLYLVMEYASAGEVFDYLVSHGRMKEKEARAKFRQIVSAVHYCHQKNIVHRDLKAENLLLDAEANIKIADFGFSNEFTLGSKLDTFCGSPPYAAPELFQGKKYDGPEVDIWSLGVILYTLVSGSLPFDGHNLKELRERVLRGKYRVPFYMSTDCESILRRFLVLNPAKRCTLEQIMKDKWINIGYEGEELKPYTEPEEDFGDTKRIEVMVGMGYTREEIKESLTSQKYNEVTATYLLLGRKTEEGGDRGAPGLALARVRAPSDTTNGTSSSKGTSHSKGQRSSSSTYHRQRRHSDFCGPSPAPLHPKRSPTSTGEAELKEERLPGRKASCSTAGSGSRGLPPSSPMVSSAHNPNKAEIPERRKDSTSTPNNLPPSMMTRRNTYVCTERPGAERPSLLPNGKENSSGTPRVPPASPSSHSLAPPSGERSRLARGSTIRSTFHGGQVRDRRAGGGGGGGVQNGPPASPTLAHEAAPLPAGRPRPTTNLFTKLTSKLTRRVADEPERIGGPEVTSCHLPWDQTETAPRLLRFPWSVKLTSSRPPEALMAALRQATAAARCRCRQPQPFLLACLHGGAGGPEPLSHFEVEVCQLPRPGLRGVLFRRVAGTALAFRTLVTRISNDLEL
As to conditions: protein MARK4; average of three replicates. The method in brief: as §1

The target of test [9] is T9, ~100 representative kinases (Homo sapiens, UniProt P49841).
T9 construct: Recombinant protein kinase domains with a concentration of 2 μM
T9 sequence (P49841 whole entry, the tested form may be a part): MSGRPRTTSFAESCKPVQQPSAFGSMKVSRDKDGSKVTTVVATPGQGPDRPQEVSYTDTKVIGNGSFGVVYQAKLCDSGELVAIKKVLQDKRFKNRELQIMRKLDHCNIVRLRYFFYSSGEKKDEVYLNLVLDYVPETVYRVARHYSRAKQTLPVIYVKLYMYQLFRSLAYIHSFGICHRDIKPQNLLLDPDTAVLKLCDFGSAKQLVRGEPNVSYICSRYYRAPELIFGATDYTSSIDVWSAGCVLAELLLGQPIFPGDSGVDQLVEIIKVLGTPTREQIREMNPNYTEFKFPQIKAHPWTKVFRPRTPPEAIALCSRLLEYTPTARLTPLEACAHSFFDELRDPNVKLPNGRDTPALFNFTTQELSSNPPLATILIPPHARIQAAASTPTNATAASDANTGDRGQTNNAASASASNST
As to conditions: protein GSK3B; average of three replicates. An outline of the steps: as §1

For test [10], the target named is T10, ~100 representative kinases (Homo sapiens, UniProt P28482).
T10 construct: Recombinant protein kinase domains with a concentration of 2 μM
T10 sequence (P28482 whole entry, the tested form may be a part): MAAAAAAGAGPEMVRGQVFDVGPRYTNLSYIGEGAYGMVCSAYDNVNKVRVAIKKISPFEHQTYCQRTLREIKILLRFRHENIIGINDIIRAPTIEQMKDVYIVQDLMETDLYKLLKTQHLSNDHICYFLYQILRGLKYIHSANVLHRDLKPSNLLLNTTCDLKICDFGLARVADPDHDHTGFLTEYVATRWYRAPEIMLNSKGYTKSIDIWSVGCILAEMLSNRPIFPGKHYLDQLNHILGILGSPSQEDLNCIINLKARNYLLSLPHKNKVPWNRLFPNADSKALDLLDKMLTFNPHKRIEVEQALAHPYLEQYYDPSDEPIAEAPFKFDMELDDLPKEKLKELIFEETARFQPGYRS
As to conditions: protein MAPK1; average of three replicates. An outline of the steps:
as §1

The target of test [11] is T11, ~100 representative kinases (Homo sapiens, UniProt P54764).
T11 construct: Recombinant protein kinase domains with a concentration of 2 μM
T11 sequence (P54764 20-986): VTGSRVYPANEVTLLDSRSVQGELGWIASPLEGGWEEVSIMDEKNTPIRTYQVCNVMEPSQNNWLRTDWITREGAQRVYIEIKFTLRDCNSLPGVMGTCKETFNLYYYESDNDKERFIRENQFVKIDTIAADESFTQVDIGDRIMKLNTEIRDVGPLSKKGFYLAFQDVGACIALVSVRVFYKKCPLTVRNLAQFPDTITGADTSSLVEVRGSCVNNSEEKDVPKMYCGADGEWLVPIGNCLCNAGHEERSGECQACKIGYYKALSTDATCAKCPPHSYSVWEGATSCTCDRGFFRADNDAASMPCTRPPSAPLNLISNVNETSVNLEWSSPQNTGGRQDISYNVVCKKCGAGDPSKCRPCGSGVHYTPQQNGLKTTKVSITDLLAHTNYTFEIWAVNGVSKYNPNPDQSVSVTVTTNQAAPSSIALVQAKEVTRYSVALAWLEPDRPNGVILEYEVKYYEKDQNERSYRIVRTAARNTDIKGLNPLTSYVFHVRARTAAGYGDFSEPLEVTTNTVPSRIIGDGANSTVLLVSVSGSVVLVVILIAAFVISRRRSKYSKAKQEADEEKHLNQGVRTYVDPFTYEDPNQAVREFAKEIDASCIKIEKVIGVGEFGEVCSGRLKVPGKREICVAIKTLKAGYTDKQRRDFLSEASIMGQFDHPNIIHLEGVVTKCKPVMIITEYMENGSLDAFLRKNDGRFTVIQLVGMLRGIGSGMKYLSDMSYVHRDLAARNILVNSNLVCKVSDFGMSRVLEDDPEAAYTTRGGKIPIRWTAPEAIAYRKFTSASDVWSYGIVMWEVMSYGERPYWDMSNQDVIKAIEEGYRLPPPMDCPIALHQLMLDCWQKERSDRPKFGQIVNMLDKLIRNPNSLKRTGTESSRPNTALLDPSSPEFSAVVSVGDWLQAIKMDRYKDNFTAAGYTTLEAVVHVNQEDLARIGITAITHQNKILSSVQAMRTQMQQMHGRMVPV
The note with it: Protein EPHA4; average of three replicates. An outline of the steps: as §1

13 compounds from publication PMC12136037, “Type II kinase inhibitors that target Parkinson’s disease–associated LRRK2” (Science Advances, 2025) can be followed below.

T5 sequence (Q13557 whole entry, the tested form may be a part): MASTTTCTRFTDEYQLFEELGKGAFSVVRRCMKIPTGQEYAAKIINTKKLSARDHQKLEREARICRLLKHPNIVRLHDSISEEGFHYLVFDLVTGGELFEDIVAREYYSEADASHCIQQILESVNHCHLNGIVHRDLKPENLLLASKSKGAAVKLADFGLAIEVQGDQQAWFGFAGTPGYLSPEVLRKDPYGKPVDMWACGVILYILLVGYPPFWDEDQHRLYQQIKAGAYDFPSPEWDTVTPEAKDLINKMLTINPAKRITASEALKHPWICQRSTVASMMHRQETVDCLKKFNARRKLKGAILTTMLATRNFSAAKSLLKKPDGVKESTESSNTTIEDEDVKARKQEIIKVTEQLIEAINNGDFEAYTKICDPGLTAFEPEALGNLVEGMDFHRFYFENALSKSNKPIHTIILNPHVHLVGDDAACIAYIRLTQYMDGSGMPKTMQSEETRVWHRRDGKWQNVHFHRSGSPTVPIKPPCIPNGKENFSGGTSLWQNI
T7 sequence (Q14680 whole entry, the tested form may be a part): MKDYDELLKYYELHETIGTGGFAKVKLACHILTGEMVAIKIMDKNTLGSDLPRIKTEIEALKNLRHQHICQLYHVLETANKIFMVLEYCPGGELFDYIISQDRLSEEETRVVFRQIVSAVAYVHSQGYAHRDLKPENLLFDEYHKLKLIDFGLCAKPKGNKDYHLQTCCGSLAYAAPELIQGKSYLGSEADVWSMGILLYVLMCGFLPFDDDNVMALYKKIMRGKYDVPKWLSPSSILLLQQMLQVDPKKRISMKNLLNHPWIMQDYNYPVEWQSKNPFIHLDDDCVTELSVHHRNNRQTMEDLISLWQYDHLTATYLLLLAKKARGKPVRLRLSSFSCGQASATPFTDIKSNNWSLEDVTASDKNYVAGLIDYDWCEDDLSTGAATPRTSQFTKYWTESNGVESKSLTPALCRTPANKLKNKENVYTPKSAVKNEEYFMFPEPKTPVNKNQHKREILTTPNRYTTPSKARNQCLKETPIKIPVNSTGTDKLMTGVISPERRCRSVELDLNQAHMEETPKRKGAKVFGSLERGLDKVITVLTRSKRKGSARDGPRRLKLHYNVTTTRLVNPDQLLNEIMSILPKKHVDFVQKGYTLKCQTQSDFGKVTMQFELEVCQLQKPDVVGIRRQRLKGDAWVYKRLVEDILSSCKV
T1 sequence (Q00536 whole entry, the tested form may be a part): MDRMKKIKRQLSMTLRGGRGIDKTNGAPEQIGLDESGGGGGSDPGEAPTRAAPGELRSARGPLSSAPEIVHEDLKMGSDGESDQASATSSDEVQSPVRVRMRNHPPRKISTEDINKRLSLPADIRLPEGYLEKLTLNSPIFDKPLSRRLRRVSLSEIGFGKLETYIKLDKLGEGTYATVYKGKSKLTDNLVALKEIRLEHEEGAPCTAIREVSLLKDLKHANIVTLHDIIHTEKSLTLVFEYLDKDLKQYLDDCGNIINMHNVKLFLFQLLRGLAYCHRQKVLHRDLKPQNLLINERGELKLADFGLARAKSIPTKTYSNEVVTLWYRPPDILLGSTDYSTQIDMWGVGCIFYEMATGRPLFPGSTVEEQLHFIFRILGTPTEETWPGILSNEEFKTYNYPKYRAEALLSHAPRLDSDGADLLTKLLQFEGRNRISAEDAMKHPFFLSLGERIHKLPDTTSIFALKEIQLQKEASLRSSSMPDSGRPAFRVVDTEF

In the case of `Cc1ccc(C(=O)Nc2ccc(CN3CCN(C)CC3)c(C(F)(F)F)c2)cc1C#Cc1c[nH]c2ncnc(N3CCOCC3)c12` [Compound 1], the dTm in [1] worked out at 1.60 K; in test [2], 1.39 K; in [3], 0.00 K; in test [4] it was 0.13 K; in [5] it was 0.30 K; in test [6], 2.18 K. In addition, the dTm is on record as 8.08 K in test [7]; 1.18 K in [8]; 1.72 K in test [9]; 0.68 K in [10]; 4.12 K in test [11].

On to `Cc1ccc(-n2nc(C(C)(C)C)cc2NC(=O)Nc2cccc(-c3c[nH]c4ncnc(N5CCOCC5)c34)c2)cc1` [Compound 29], for which the dTm in test [1] is on record as 16.54 K; in test [2] it was 1.43 K; in [3] it was -10.48 K; in test [4], -0.60 K; in [5] it was -0.40 K; in test [6] it was 4.13 K. The dTm in test [7] was 6.41 K; in test [8], 3.91 K; in test [10], -0.31 K; in test [11], 6.97 K.

`Cc1ccc(-n2nc(C(C)(C)C)cc2NC(=O)Nc2cccc(-c3c[nH]c4nc(Cl)nc(N5CCOCC5)c34)c2)cc1` [Compound 30]: the dTm is recorded as 3.37 K in test [1]; -0.58 K in test [2]; -11.52 K in [3]; 0.13 K in test [4]; -0.81 K in test [5]; 1.42 K in test [6]. Further, the dTm was 2.91 K in test [7], -1.19 K in [8], -0.99 K in test [10] and 1.07 K in test [11].

With `CC(=O)N1CCN(c2nc(Cl)nc3[nH]cc(-c4cccc(NC(=O)Nc5cc(C(C)(C)C)nn5-c5ccc(C)cc5)c4)c23)CC1` [Compound 31], the dTm in test [1] was 5.50 K; in [2], 0.46 K; in test [3], -9.46 K; in [4] it was -0.27 K; in test [5] it was -0.29 K; in test [6] it was 0.84 K. For the same compound, the dTm in test [7] is 2.26 K; in [8] it was -0.53 K; in [10], -0.85 K; in [11], 2.58 K.

With `COc1cc(C(=O)N2CCOCC2)c(F)cc1Nc1nc(N(C)C)c2c(Cl)c[nH]c2n1` [Compound 36], the dTm in test [1] is 0.43 K; in [2], 0.40 K; in test [3], -1.01 K; in test [4] it was -0.44 K; in [5] it was 3.01 K; in test [6], 5.54 K. In addition, the dTm in test [7] is given as 1.11 K; in test [8], -0.63 K; in test [10] it was 1.60 K; in test [11], -0.69 K.

Regarding `COc1cc(S(C)(=O)=O)ccc1Nc1nc(N(C)C)c2c(Cl)c[nH]c2n1` [Compound 37], the dTm in test [1] is given as -0.043 K; in test [2], 0.04 K; in [3] it was -0.93 K; in test [4] it was -0.63 K; in test [5], 0.41 K; in [6], 3.54 K. The dTm in [7] is 0.45 K; in test [8] it was 0.42 K; in [10], 0.14 K; in test [11] it was -0.37 K.

Consider `CCNc1nc(Nc2cc(F)c(C(=O)N3CCOCC3)cc2OC)ncc1C(F)(F)F` [GNE-7915], for which the dTm in [1] is 0.61 K; in [2], -0.0645 K; in test [5] it was -0.06 K; in test [6] it was 0.60 K; in test [7], 2.44 K; in test [8], -0.13 K. For the same compound, the results for the dTm in test [9], in test [10] and in test [11] were 3.70 K, 0.38 K and 0.0738 K, respectively.

Turning to `Cc1ccc(C(=O)Nc2ccc(CN3CCN(C)CC3)c(C(F)(F)F)c2)cc1C#Cc1cnc2[nH]ncc2c1` [GZD-824, reference compound], the dTm is recorded as 3.06 K in test [1]; 0.53 K in test [2]; -0.21 K in test [5]; 4.08 K in test [6]; 5.45 K in test [7]; 1.02 K in [8]. Further, the dTm in [9] is given as 4.71 K; in test [10], 0.87 K; in test [11], 15.22 K.

In the case of `C[C@@H]1CN(c2cc(-c3n[nH]c4ccc(OC5(C)CC5)cc34)ncn2)C[C@H](C)O1` [MLi2], the dTm is recorded as -0.14 K in test [1]; 0.19 K in test [2]; 1.10 K in test [5]; 0.56 K in test [6]; 0.47 K in test [7]; -0.55 K in test [8]. Further, the dTm in [9] is 0.56 K; in test [10] it was 0.49 K; in test [11], -0.15 K.

As to `Cn1cc(-c2c[nH]c3ncnc(N4CCOCC4)c23)cc1C#N` [PFE-360], the dTm in [1] came to 0.35 K; in [2] it was 0.08 K; in [5] it was 0.51 K; in [6], 0.89 K; in test [7], 5.72 K; in test [8], 3.49 K. Moreover, the dTm in test [9] is on record as 5.50 K; in [10], 0.55 K; in [11] it was 0.0126 K.

`Cc1ccc(C(=O)Nc2ccc(CN3CCN(C)CC3)c(C(F)(F)F)c2)cc1C#Cc1cnc2cccnn12` [Ponatinib, reference compound] gave a dTm in test [8] of -0.48 K.

`CNC(=O)c1cc(Oc2ccc(NC(=O)Nc3cc(C(C)(C)C)nn3-c3ccc4ncccc4c3)c(F)c2)ccn1` [Rebastinib, reference compound]: the dTm in test [1] is given as 13.62 K; in test [3], -5.98 K; in test [4] it was -1.54 K; in test [5], 2.16 K; in [6], 1.99 K; in test [7] it was 0.63 K. Besides, the dTm in [8] was 2.04 K; in test [9] it was 11.89 K; in test [10], 0.54 K; in test [11], 15.87 K.

As to `CN[C@@H]1C[C@H]2O[C@@](C)([C@@H]1OC)n1c3ccccc3c3c4c(c5c6ccccc6n2c5c31)C(=O)NC4` [Staurosporine], the dTm was determined as 2.20 K in [2], 14.15 K in test [7], 15.90 K in [8] and 6.68 K in test [11].
